Results from ChEMBL document CHEMBL3616373, “Identification of N-sulfonyl-tetrahydroquinolines as RORc inverse agonists” (Bioorg Med Chem Lett, 2015).
Calls of active or inactive are those of the source. No cut-off for these calls is given here.

Tests used:
[1] = molecular target: T1, Oxysterols receptor LXR-alpha (Homo sapiens) (UniProt Q13133); assay: Agonist activity at GAL4-fused human LXRalpha expressed in HEK293 cells assessed as activation of basal transcriptional activity up to 10 uM after 20 hrs by dual-glo luciferase reporter gene assay; format: cell-based
T1 sequence (whole entry): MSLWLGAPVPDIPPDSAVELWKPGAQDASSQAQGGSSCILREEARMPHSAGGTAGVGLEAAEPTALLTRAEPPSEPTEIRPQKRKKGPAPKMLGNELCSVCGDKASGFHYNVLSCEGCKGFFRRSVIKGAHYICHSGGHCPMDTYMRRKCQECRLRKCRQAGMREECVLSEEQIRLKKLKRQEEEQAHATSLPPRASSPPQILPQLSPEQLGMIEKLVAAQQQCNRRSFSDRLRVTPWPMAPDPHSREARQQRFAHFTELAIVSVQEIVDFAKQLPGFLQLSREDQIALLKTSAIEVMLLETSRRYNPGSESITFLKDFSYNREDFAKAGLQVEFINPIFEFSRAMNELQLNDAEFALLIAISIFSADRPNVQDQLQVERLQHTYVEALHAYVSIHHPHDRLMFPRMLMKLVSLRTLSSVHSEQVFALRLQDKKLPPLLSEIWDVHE

[2] = Apparent permeability across apical to basolateral side in MDCK cells at 100 uM after 60 mins by HPLC analysis; format: ADME, cell-based, Canis lupus familiaris; conditions: dog
[3] = Apparent permeability across basolateral to apical side in MDCK cells at 100 uM after 60 mins by HPLC analysis; format: ADME, cell-based, Canis lupus familiaris; conditions: dog
[4] = molecular target: T2, Bile acid receptor (Homo sapiens) (UniProt Q96RI1); assay: Agonist activity at GAL4-fused human FXR expressed in HEK293 cells assessed as activation of basal transcriptional activity up to 10 uM after 20 hrs by dual-glo luciferase reporter gene assay; format: cell-based
T2 sequence (whole entry): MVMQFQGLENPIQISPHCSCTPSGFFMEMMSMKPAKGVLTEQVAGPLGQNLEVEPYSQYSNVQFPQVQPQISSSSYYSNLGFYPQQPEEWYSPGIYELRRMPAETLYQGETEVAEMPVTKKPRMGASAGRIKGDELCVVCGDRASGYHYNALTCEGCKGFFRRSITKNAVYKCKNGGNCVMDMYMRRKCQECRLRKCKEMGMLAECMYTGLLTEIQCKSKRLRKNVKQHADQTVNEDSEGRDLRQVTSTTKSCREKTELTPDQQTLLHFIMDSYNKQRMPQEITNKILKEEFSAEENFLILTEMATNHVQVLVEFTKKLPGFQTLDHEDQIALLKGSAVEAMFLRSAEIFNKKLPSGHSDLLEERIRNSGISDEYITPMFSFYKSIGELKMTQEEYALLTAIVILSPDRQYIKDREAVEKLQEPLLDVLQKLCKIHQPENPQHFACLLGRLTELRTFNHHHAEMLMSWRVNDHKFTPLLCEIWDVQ

[5] = molecular target: T3, Nuclear receptor ROR-beta (Homo sapiens, UniProt Q92753); assay: Inverse agonist activity at GAL4-fused human RORb expressed in HEK293 cells assessed as suppression of basal transcriptional activity after 20 hrs by dual-glo luciferase reporter gene assay; format: cell-based
T3 sequence (Q92753 whole entry): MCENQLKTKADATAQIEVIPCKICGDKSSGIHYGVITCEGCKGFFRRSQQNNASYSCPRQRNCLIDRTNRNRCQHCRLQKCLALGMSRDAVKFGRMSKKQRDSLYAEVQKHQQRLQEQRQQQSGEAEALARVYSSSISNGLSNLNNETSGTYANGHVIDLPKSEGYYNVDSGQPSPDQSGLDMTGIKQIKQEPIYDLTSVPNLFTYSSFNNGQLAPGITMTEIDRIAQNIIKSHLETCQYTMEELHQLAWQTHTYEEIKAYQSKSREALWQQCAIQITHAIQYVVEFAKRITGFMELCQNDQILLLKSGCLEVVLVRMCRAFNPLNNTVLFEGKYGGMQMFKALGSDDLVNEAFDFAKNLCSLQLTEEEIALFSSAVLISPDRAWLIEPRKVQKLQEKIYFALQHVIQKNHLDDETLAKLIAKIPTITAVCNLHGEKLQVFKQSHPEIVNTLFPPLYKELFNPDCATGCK

[6] = Plasma protein binding in rat at 5 uM after 4 hrs by equilibrium dialysis method; format: ADME, cell-free; conditions: read-out: PPB
[7] = molecular target: T4, Oxysterols receptor LXR-beta (Homo sapiens) (UniProt P55055); assay: Agonist activity at GAL4-fused human LXRbeta expressed in HEK293 cells assessed as activation of basal transcriptional activity up to 10 uM after 20 hrs by dual-glo luciferase reporter gene assay; format: cell-based
T4 sequence (whole entry): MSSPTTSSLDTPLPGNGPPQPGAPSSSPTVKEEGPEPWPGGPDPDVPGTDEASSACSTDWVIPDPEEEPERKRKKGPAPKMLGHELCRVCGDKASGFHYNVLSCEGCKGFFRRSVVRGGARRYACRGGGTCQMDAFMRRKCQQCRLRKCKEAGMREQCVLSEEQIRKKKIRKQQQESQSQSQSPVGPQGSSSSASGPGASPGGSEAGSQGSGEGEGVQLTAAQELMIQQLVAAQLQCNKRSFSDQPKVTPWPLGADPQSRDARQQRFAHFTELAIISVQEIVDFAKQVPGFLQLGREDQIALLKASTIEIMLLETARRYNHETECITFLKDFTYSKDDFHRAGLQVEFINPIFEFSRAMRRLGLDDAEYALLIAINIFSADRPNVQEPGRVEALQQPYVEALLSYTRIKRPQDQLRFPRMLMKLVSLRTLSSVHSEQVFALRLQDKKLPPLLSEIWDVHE

[8] = molecular target: T5, Nuclear receptor subfamily 1 group I member 2 (Homo sapiens, UniProt O75469); assay: Agonist activity at GAL4-fused human PXR expressed in HEK293 cells assessed as activation of basal transcriptional activity up to 10 uM after 20 hrs by dual-glo luciferase reporter gene assay; format: cell-based; conditions: hek293, 20 h
T5 sequence (O75469 whole entry): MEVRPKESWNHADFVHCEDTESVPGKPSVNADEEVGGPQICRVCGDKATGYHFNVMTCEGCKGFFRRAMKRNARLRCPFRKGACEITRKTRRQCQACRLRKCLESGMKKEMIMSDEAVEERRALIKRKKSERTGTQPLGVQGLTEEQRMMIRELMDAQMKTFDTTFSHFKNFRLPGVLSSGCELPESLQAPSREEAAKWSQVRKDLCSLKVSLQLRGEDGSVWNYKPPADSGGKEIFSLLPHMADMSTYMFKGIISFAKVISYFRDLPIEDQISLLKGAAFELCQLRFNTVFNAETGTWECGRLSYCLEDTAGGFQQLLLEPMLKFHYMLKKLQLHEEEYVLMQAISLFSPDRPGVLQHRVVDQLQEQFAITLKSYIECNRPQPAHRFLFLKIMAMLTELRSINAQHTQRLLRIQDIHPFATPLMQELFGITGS

[9] = molecular target: T6, Oxysterols receptor LXR-alpha (Homo sapiens, UniProt Q13133); assay: Antagonist activity at GAL4-fused human LXRalpha expressed in HEK293 cells assessed as inhibition of T0901317-stimulated transcriptional activity after 20 hrs by dual-glo luciferase reporter gene assay; format: cell-based
T6 sequence (Q13133 whole entry): T1 sequence (whole entry)

Activity [1] | Papp A→B at 1 h, 100 µM [2] [×10⁻⁶ cm/s] | Papp B→A at 1 h, 100 µM [3] [×10⁻⁶ cm/s] | Activity [4] | EC50 [5] [µM] | fraction unbound at 4 h, 5 µM [6] | Activity [7] | Activity [8] | EC50 [9] [µM] | Structure (SMILES)
inactive | 12 | 12 | inactive | 3.4 | < 0.01 | inactive | Not Active | – | O=C(Nc1ccc2c(c1)N(S(=O)(=O)c1ccc(F)cc1)CCC2)c1c(F)cccc1Cl
inactive | 12 | 15 | inactive | 4.1 | < 0.01 | inactive | Not Active | 2.6 | O=C(Nc1ccc2c(c1)N(S(=O)(=O)c1ccc(F)cc1)CCC2)c1ccccc1Cl
inactive | 22 | 14 | inactive | 5.4 | 0.01 | inactive | Not Active | 4.1 | O=C(Nc1ccc2c(c1)N(S(=O)(=O)c1ccc(F)cc1)CCC2)c1c(F)cccc1F
inactive | 16 | 11 | inactive | 7.9 | 0.01 | inactive | Not Active | 4.2 | O=C(Nc1ccc2c(c1)N(S(=O)(=O)c1ccc(F)cc1)CC2)c1c(F)cccc1F
